This is an account of results in publication PMC12560828, “Chemical structure drives developmental toxicity of alkyl-substituted naphthalenes in zebrafish” (Environment international, 2025).

Data set [1] relates to early life stage zebrafish (Danio rerio) embryos. The experiment in a line: Developmental toxicity morphology screen, sealed rotating vial exposure. Also noted: bmd, MO24 / bmd, MORT / bmd, ANY_ / bmd, AXIS / bmd, CRAN / bmd, EDEM / bmd, LTRK / bmd, MUSC / bmdL, ANY_ / bmdU, ANY_ / bmdL, AXIS / bmdU, AXIS / bmdL, CRAN / bmdU, CRAN / bmdL, EDEM / bmdU, EDEM / bmdL, LTRK / bmdU, LTRK / bmdL, MO24 / bmdU, MO24 / bmdL, MORT / bmdU, MORT: unit not given here. It counts as in vivo. The following applies: for BMC50 Any effect: Fig. 2 heatmap, exposure 6-24 hpf in vials, summary of all endpoints; for any effect BMD50: SI-T5; for estimated percent Any effect: at 20 μM, 120 hpf, estimated from fitted concentration-response curves. A digest of the protocol:
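Bleached 6 hpf embryos, eight per sealed glass vial in 2 mL EM, were dosed from a 200x DMSO stock and rotated end-over-end overnight at 28 °C, then moved to chemical-free EM at 24 hpf (32 embryos per treatment). Blinded binary scoring at 120 hpf was pooled as "Any effect". BMC50 is on nominal concentrations.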

The test system of data set [2] is zebrafish larvae, 120 hpf. Briefly: Larval photomotor response (LPR) assay after vial exposure. It counts as in vivo, Danio rerio. Particulars: LPR. Summed up:
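Embryos bleached at 6 hpf, exposed in sealed glass vials (8 per vial, DMSO stock at 200x) with rotation overnight at 28 °C, then singulated into chemical-free medium and kept dark at 28 °C. Movement tracked minutes 6–24 at 120 hpf, 6 s bins log-normalized to AUC; LEL per light/dark period from first cycle; nominal water concentrations, dead/malformed larvae excluded.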

Where [3] appears, read: benchmark dose, morphology endpoint ANY_ (any effect).
Setting [4] is: benchmark dose, morphology endpoint AXIS.
The mark [5] stands for this setting: benchmark dose, morphology endpoint CRAN.
Where [6] appears, read: period dark, round 1, conc 3.125.
Where [7] appears, read: period dark, round 1, conc 6.25.
Setting [8] is: period dark, round 1, conc 12.5.
Where [9] appears, read: period dark, round 2, conc 37.5.
Setting [10] is: period light, round 1, conc 3.125.
Where [11] appears, read: period light, round 1, conc 6.25.
[12] abbreviates: period light, round 1, conc 12.5.
[13] abbreviates: period light, round 2, conc 37.5.

SMILES strings stand for the structures.

For `Cc1cccc2c(C)cccc12` [1,5-dimethylnaphthalene], the “BMC50 AXIS (curved or bent body axis at 120 hpf)” value (“BMC50 AXIS” below) in data set [1] (Fig. 2, nominal concentration) was found to be 47.6 µM. Further, in data set [1] (Fig. 2, nominal concentration), the “BMC50 CRAN (craniofacial malformation at 120 hpf)” value (shortened to “BMC50 CRAN”) is 48.3 µM. Moreover, in data set [1] (Fig. 2, nominal concentration), the “BMC50 EDEM (pericardial and/or yolk sac edema at 120 hpf)” value was 47.8 µM. Besides, the “BMC50 MO24 (mortality at 24 hpf)” value in data set [1] (Fig. 2, nominal concentration) is reported as “no MO24 BMC50”. Besides, the “BMC50 Any effect” value in data set [1] (nominal concentration) was determined as 36.9 µM. Moreover, in data set [1], the “any effect BMD50” value amounted to 36.95 µM. The “estimated percent Any effect” value in data set [1] is on record as 13%. Also, in data set [1] (setting [3]), the “bmd, ANY_” value came out at 36.9476. Further, in data set [1] (setting [4]), the “bmd, AXIS” value came out at 47.5678. In addition, in data set [1] (setting [5]), the “bmd, CRAN” value stood at 48.2521. In addition, the “bmd, EDEM” value in data set [1] (benchmark dose, morphology endpoint EDEM) was found to be 47.802. The fold_change in data set [2] (setting [6]) was 0.2385; in data set [2] (setting [7]), 0.04355; in data set [2] (setting [8]), 0.0001175; in data set [2] (period dark, round 1, conc 25), -0.1166; in data set [2] (period dark, round 2, conc 30) it was -0.72; in data set [2] (setting [9]), -0.6231. Also, the fold_change is recorded as 0.2204 in data set [2] (setting [10]); 0.1087 in data set [2] (setting [11]); 0.8122 in data set [2] (setting [12]); 0.799 in data set [2] (period light, round 1, conc 25); 0.3918 in data set [2] (period light, round 2, conc 30); 0.2643 in data set [2] (setting [13]).

Take `Cc1ccc2cccc(C)c2c1` [1,7-dimethylnaphthalene]: in data set [1] (Fig. 2, nominal concentration), the “BMC50 AXIS” value was 23.9 µM. Besides, in data set [1] (Fig. 2, nominal concentration), the “BMC50 LTRK (lower trunk and/or caudal fin at 120 hpf)” value amounted to 30 µM. Further, in data set [1] (Fig. 2, nominal concentration), the “BMC50 MORT (mortality at 120 hpf)” value was “not associated with mortality”. Also, in data set [1] (Fig. 2, nominal concentration), the “BMC50 MUSC (muscular/cardiovascular at 120 hpf)” value is 45.7 µM. Moreover, in data set [1] (nominal concentration), the “BMC50 Any effect” value worked out at 20.1 µM. In addition, the “any effect BMD50” value in data set [1] came out at 20.09 µM. For the same compound, the “estimated percent Any effect” value in data set [1] was 52%. The “bmd, ANY_” value in data set [1] (setting [3]) is given as 20.0865. For the same compound, the “bmd, AXIS” value in data set [1] (setting [4]) is 23.9279. The “bmd, LTRK” value in data set [1] (benchmark dose, morphology endpoint LTRK) came out at 29.9891. Besides, the “bmd, MUSC” value in data set [1] (benchmark dose, morphology endpoint MUSC) was determined as 45.7133. The fold_change was -0.2153 in data set [2] (setting [6]); -0.5415 in data set [2] (setting [7]); -0.6708 in data set [2] (setting [8]); -0.6391 in data set [2] (period dark, round 1, conc 25); -0.5634 in data set [2] (setting [10]); -0.1569 in data set [2] (setting [11]). The fold_change in data set [2] (setting [12]) was -0.05053; in data set [2] (period light, round 1, conc 25) it was 0.1308.

In the case of `Cc1cc(C)c2c(C)cccc2c1` [2,4,5-trimethylnaphthalene], the “BMC50 AXIS” value in data set [1] (Fig. 2, nominal concentration) was 24.2 µM. In addition, the “BMC50 CRAN” value in data set [1] (Fig. 2, nominal concentration) worked out at 24.8 µM. In addition, in data set [1] (Fig. 2, nominal concentration), the “BMC50 MO24 (mortality at 24 hpf)” value was found to be 25.7 µM. Besides, in data set [1] (Fig. 2, nominal concentration), the “BMC50 MORT (mortality at 120 hpf)” value is 24.2 µM. In addition, the “BMC50 Any effect” value in data set [1] (nominal concentration) came out at 22 µM. Moreover, in data set [1], the “any effect BMD50” value is 22.04 µM. For the same compound, the “bmd, MO24” value in data set [1] (benchmark dose, endpoint MO24) is 25.7458. Moreover, the “bmd, MORT” value in data set [1] (benchmark dose, endpoint MORT) came out at 24.2071. Besides, in data set [1] (setting [3]), the “bmd, ANY_” value is 22.0373. Moreover, the “bmd, AXIS” value in data set [1] (setting [4]) was determined as 24.1954. Besides, the “bmd, CRAN” value in data set [1] (setting [5]) is 24.8219. The fold_change is -0.1188 in data set [2] (setting [6]); -0.09148 in data set [2] (setting [7]); -0.4407 in data set [2] (setting [8]); -0.3131 in data set [2] (period dark, round 2, conc 12.8); -0.104 in data set [2] (period dark, round 2, conc 16); -0.2326 in data set [2] (period dark, round 2, conc 20). Further, the fold_change is reported as -0.1438 in data set [2] (setting [10]); -0.1964 in data set [2] (setting [11]); 0.215 in data set [2] (setting [12]); -0.6609 in data set [2] (period light, round 2, conc 12.8); 0.3746 in data set [2] (period light, round 2, conc 16); 0.3257 in data set [2] (period light, round 2, conc 20).

On to `Cc1ccc2ccc(C)cc2c1` [2,7-dimethylnaphthalene], for which the “estimated percent Any effect” value in data set [1] is 12%. Further, the fold_change in data set [2] (setting [6]) is on record as 0.1561; in data set [2] (setting [7]), -0.165; in data set [2] (setting [8]), -0.13; in data set [2] (period dark, round 1, conc 25), -0.7363; in data set [2] (period dark, round 1, conc 50) it was -0.8227; in data set [2] (setting [10]), 0.7628. In addition, the fold_change stood at 0.4574 in data set [2] (setting [11]); 1.067 in data set [2] (setting [12]); 1.005 in data set [2] (period light, round 1, conc 25); 0.2181 in data set [2] (period light, round 1, conc 50).

As for `CCc1ccc2ccccc2c1` [2-ethylnaphthalene], in data set [1] (Fig. 2, nominal concentration), the “BMC50 AXIS” value is 44.9 µM. Moreover, in data set [1] (Fig. 2, nominal concentration), the “BMC50 CRAN” value was found to be 45.7 µM. Further, the “BMC50 EDEM (pericardial and/or yolk sac edema at 120 hpf)” value in data set [1] (Fig. 2, nominal concentration) came out at 42.3 µM. The “BMC50 LTRK (lower trunk and/or caudal fin at 120 hpf)” value in data set [1] (Fig. 2, nominal concentration) turned out to be 49.8 µM. For the same compound, the “BMC50 MO24 (mortality at 24 hpf)” value in data set [1] (Fig. 2, nominal concentration) is 47.1 µM. For the same compound, in data set [1] (Fig. 2, nominal concentration), the “BMC50 MORT (mortality at 120 hpf)” value stood at 44.6 µM. Also, the “BMC50 Any effect” value in data set [1] (nominal concentration) was determined as 35.2 µM. Further, in data set [1], the “any effect BMD50” value is 35.16 µM. Moreover, the “bmd, MO24” value in data set [1] (endpoint MO24, benchmark dose) worked out at 47.121. The “bmdL, MO24” value in data set [1] (endpoint MO24, lower limit of benchmark dose) worked out at 45.5775. Moreover, the “bmdU, MO24” value in data set [1] (endpoint MO24, upper limit of benchmark dose) amounted to 48.8332. Besides, in data set [1] (endpoint MORT, benchmark dose), the “bmd, MORT” value came to 44.5979. For the same compound, in data set [1] (endpoint MORT, lower limit of benchmark dose), the “bmdL, MORT” value was determined as 42.8494. The “bmdU, MORT” value in data set [1] (endpoint MORT, upper limit of benchmark dose) is reported as 46.3328. Moreover, the “bmd, ANY_” value in data set [1] (morphology endpoint ANY_, benchmark dose) was 35.1578. The “bmdL, ANY_” value in data set [1] (morphology endpoint ANY_, lower limit of benchmark dose) is 33.394. The “bmdU, ANY_” value in data set [1] (morphology endpoint ANY_, upper limit of benchmark dose) came out at 36.9258. Also, the “bmd, AXIS” value in data set [1] (morphology endpoint AXIS, benchmark dose) is reported as 44.9036. The “bmdL, AXIS” value in data set [1] (morphology endpoint AXIS, lower limit of benchmark dose) is recorded as 41.901. Further, in data set [1] (morphology endpoint AXIS, upper limit of benchmark dose), the “bmdU, AXIS” value came out at 49.465. Moreover, the “bmd, CRAN” value in data set [1] (morphology endpoint CRAN, benchmark dose) was determined as 45.7058. In data set [1] (morphology endpoint CRAN, lower limit of benchmark dose), the “bmdL, CRAN” value turned out to be 42.7078. Moreover, the “bmdU, CRAN” value in data set [1] (morphology endpoint CRAN, upper limit of benchmark dose) came to 50.351. Moreover, in data set [1] (morphology endpoint EDEM, benchmark dose), the “bmd, EDEM” value was 42.2958. Besides, the “bmdL, EDEM” value in data set [1] (morphology endpoint EDEM, lower limit of benchmark dose) came out at 39.552. Moreover, the “bmdU, EDEM” value in data set [1] (morphology endpoint EDEM, upper limit of benchmark dose) is recorded as 46.0615. Moreover, in data set [1] (morphology endpoint LTRK, benchmark dose), the “bmd, LTRK” value was determined as 49.8262. In data set [1] (morphology endpoint LTRK, lower limit of benchmark dose), the “bmdL, LTRK” value is reported as 46.6984. The “bmdU, LTRK” value in data set [1] (morphology endpoint LTRK, upper limit of benchmark dose) was 55.8128. The fold_change in data set [2] (setting [6]) is reported as -0.0209; in data set [2] (setting [7]), -0.02917; in data set [2] (setting [8]) it was -0.4131; in data set [2] (period dark, round 1, conc 25), -0.9177; in data set [2] (period dark, round 2, conc 30) it was -0.0665; in data set [2] (setting [9]), -0.3116. Also, the fold_change in data set [2] (setting [10]) is recorded as -0.3417; in data set [2] (setting [11]), 0.05317; in data set [2] (setting [12]) it was 0.3434; in data set [2] (period light, round 1, conc 25), -0.2321; in data set [2] (period light, round 2, conc 30), 0.3708; in data set [2] (setting [13]), -0.3232.
